Values after ≈ are worked out from the molar mass of the structure shown.
Experiments:
[1] = system: Enterococcus faecalis ATCC 19433; assay: Inhibition of bacterial growth in culture, spiral gradient endpoint assay (MIC); format: cell-based; details: for MIC: Enterococcus faecalis, ATCC 19433 /, 16 h, read-out: MIC E. faecalis, Mueller-Hinton II agar, 16 h at 37° C.; for MIC E. faecalis H37Rv: Mueller-Hinton II agar, 16 h at 37° C.
Description: J. Microbiol. Meths. […] Int. J. Exp. Clin. Chemother. […] Adv.

[2] = system: Escherichia coli D21f2tolC; assay: microbe, parasite or virus in culture; details: 16 h, read-out: MIC E. coli D21f2tolC, Mueller-Hinton II agar, 16 h at 37° C.
[3] = system: Staphylococcus aureus ATCC 12600; assay: Inhibition of bacterial growth in culture, spiral gradient endpoint assay (MIC); details: for MIC: Staphylococcus aureus, ATCC12600, 16 h, read-out: MIC S. aureus 12600, Mueller-Hinton II agar, 16 h at 37° C.
[4] = system: Escherichia coli D21f2tolC; details: Mueller-Hinton II agar, 16 h at 37° C.

Row | SMILES | MIC [1] [µg/mL] | MIC [2] [µg/mL] | MIC [3] [µg/mL] | MIC E. faecalis H37Rv [1] [µg/mL] | MIC S. aureus 12600 ([3]; Mueller-Hinton II agar, 16 h at 37° C.) [µg/mL] | MIC E. coli D21f2tolC [4] [µg/mL]
1 | CCCC1=C(O)C(CCC)(CCC)C(=O)C(C(=O)C2CC2c2ccc(Oc3ccc(F)cc3)cc2)=C1O (stereo not drawn) [Example 66, 2-(2-(4-(4-fluorophenoxy)phenyl)cyclopropanecarbonyl)-3,5-dihydroxy-4,6,6-tripropylcyclohexa-2,4-dienone] | 0.55 (≈ 1.09 µM) | 0.72 (≈ 1.42 µM) | 0.16 (≈ 0.316 µM) | – | – | –
2 | CCCC1=C(O)C(CCC)(CCC)C(=O)C(C(=O)CCc2ccc(Oc3ccc(F)cc3)cc2C(F)(F)F)=C1O [Example 68, 2-(3-(4-(4-fluorophenoxy)-2-(trifluoromethyl)phenyl)propanoyl)-3,5-dihydroxy-4,6,6-tripropylcyclohexa-2,4-dienone] | 1.3 (≈ 2.31 µM) | 1.5 (≈ 2.67 µM) | 0.6 (≈ 1.07 µM) | – | – | –
3 | CCCC1=C(O)C(CCC)(CCC)C(=O)C(C(=O)CCc2ccc(Oc3ccc(F)cc3)cc2C)=C1O [Example 69, 2-(3-(4-(4-fluorophenoxy)-2-methylphenyl)propanoyl)-3,5-dihydroxy-4,6,6-tripropylcyclohexa-2,4-dienone] | 1.4 (≈ 2.75 µM) | 1.1 (≈ 2.16 µM) | 1.1 (≈ 2.16 µM) | – | – | –
4 | CCCC1=C(O)C(CCC)(CCC)C(=O)C(C(=O)C2CC2c2ccc(Oc3ccc(F)cc3)cc2C(F)(F)F)=C1O (stereo not drawn) [Example 70, 2-(2-(4-(4-fluorophenoxy)-2-(trifluoromethyl)phenyl)cyclopropanecarbonyl)-3,5-dihydroxy-4,6,6-tripropylcyclohexa-2,4-dienone] | 1.2 (≈ 2.09 µM) | 8.2 (≈ 14.3 µM) | 1.5 (≈ 2.61 µM) | – | – | –
5 | CCCC1=C(O)C(CCC)(CCC)C(=O)C(C(=O)C2CC2c2ccc(Oc3ccc(F)cc3)cc2C)=C1O (stereo not drawn) [Example 71, 2-(2-(4-(4-fluorophenoxy)-2-methylphenyl)cyclopropanecarbonyl)-3,5-dihydroxy-4,6,6-tripropylcyclohexa-2,4-dienone] | 2.1 (≈ 4.03 µM) | 2.3 (≈ 4.42 µM) | 0.9 (≈ 1.73 µM) | – | – | –
6 | CCC1=C(O)C(CC)(CC)C(=O)C(C(=O)C2CC2c2ccc(Oc3ccc(F)cc3)cc2C(F)(F)F)=C1O (stereo not drawn) [Example 72, 4,6,6-triethyl-2-(2-(4-(4-fluorophenoxy)-2-(trifluoromethyl)phenyl)cyclopropanecarbonyl)-3,5-dihydroxycyclohexa-2,4-dienone] | > 40 | 1.6 (≈ 3 µM) | 6.5 (≈ 12.2 µM) | – | – | –
7 | CCC1=C(O)C(CC)(CC)C(=O)C(C(=O)CCc2ccc(Oc3ccc(F)cc3)cc2C(F)(F)F)=C1O [Example 73, 4,6,6-triethyl-2-(3-(4-(4-fluorophenoxy)-2-(trifluoromethyl)phenyl)propanoyl)-3,5-dihydroxycyclohexa-2,4-dienone] | 1.6 (≈ 3.07 µM) | 1.2 (≈ 2.31 µM) | 1.5 (≈ 2.88 µM) | – | – | –
8 | CCC1=C(O)C(CC)(CC)C(=O)C(C(=O)CCc2ccc(Oc3ccc(F)cc3)cc2C)=C1O [Example 74, 4,6,6-triethyl-2-(3-(4-(4-fluorophenoxy)-2-methylphenyl)propanoyl)-3,5-dihydroxycyclohexa-2,4-dienone] | 11 (≈ 23.6 µM) | 0.9 (≈ 1.93 µM) | 1.7 (≈ 3.64 µM) | – | – | –
9 | CC1=C(O)C(C)(C)C(=O)C(C(=O)C2CC2c2ccc(Oc3ccc(F)cc3)cc2C)=C1O (stereo not drawn) [Example 75, 2-(2-(4-(4-fluorophenoxy)-2-methylphenyl)cyclopropanecarbonyl)-3,5-dihydroxy-4,6,6-trimethylcyclohexa-2,4-dienone] | > 40 | 5.1 (≈ 11.7 µM) | 17 (≈ 38.9 µM) | – | – | –
10 | CC1=C(O)C(C)(C)C(=O)C(C(=O)C2CC2c2ccc(Cl)cc2C(F)(F)F)=C1O (stereo not drawn) [Example 76, 2-(2-(4-chloro-2-(trifluoromethyl)phenyl)cyclopropanecarbonyl)-3,5-dihydroxy-4,6,6-trimethylcyclohexa-2,4-dienone] | > 40 | 3.1 (≈ 7.47 µM) | 12 (≈ 28.9 µM) | – | – | –
11 | CC1=C(O)C(C)(C)C(=O)C(C(=O)C2CC2c2ccc(Cl)cc2C)=C1O (stereo not drawn) [Example 77, 2-(2-(4-chloro-2-methylphenyl)cyclopropanecarbonyl)-3,5-dihydroxy-4,6,6-trimethylcyclohexa-2,4-dienone] | > 40 | 7.4 (≈ 20.5 µM) | > 40 | – | – | –
12 | CC1=C(O)C(C)(C)C(=O)C(C(=O)CCc2ccc(Oc3ccc(F)cc3)cc2)=C1O [Example 78, 2-(3-(4-(4-fluorophenoxy)phenyl)propanoyl)-3,5-dihydroxy-4,6,6-trimethylcyclohexa-2,4-dienone] | > 40 | 6.5 (≈ 15.8 µM) | > 40 | – | – | –
13 | CCCC1=C(O)C(CCC)(CCC)C(=O)C(C(=O)C2CC2c2ccc(Cl)cc2)=C1O (stereo not drawn) [Example 79, 2-(2-(4-chlorophenyl)cyclopropanecarbonyl)-3,5-dihydroxy-4,6,6-tripropylcyclohexa-2,4-dienone] | 0.61 (≈ 1.42 µM) | 0.15 (≈ 0.348 µM) | 0.27 (≈ 0.626 µM) | – | – | –
14 | CCCC1=C(O)C(CCC)(CCC)C(=O)C(C(=O)C2CC2c2ccc(Cl)cc2C(F)(F)F)=C1O (stereo not drawn) [Example 80, 2-(2-(4-chloro-2-(trifluoromethyl)phenyl)cyclopropanecarbonyl)-3,5-dihydroxy-4,6,6-tripropylcyclohexa-2,4-dienone] | 0.42 (≈ 0.842 µM) | 0.33 (≈ 0.661 µM) | 0.14 (≈ 0.281 µM) | – | – | –
15 | CCC1=C(O)C(CC)(CC)C(=O)C(C(=O)C2CC2c2ccc(Cl)cc2)=C1O (stereo not drawn) [Example 81, 2-(2-(4-chlorophenyl)cyclopropanecarbonyl)-4,6,6-triethyl-3,5-dihydroxycyclohexa-2,4-dienone] | – | 2.2 (≈ 5.66 µM) | 4.5 (≈ 11.6 µM) | 11 (≈ 28.3 µM) | – | –
16 | CCC1=C(O)C(CC)(CC)C(=O)C(C(=O)C2CC2c2ccc(Cl)cc2C)=C1O (stereo not drawn) [Example 82, 2-(2-(4-chloro-2-methylphenyl)cyclopropanecarbonyl)-4,6,6-triethyl-3,5-dihydroxycyclohexa-2,4-dienone] | 12 (≈ 29.8 µM) | 1.2 (≈ 2.98 µM) | 3.6 (≈ 8.93 µM) | – | – | –
17 | CC1=C(O)C(C)(C)C(=O)C(C(=O)C2CC2c2ccc(C(F)(F)F)cc2C(F)(F)F)=C1O (stereo not drawn) [Example 83, 2-(2-(2,4-bis(trifluoromethyl)phenyl)cyclopropanecarbonyl)-3,5-dihydroxy-4,6,6-trimethylcyclohexa-2,4-dienone] | > 40 | 2.4 (≈ 5.35 µM) | 5 (≈ 11.2 µM) | – | – | –
18 | CCC1=C(O)C(CC)(CC)C(=O)C(C(=O)C2CC2c2ccc(Cl)cc2C(F)(F)F)=C1O (stereo not drawn) [Example 84, 2-(2-(4-chloro-2-(trifluoromethyl)phenyl)cyclopropanecarbonyl)-4,6,6-triethyl-3,5-dihydroxycyclohexa-2,4-dienone] | 2.1 (≈ 4.6 µM) | 0.44 (≈ 0.963 µM) | 1.3 (≈ 2.85 µM) | – | – | –
19 | CC1=C(O)C(C)(C)C(=O)C(C(=O)C2CC2c2ccc(Oc3ccc(F)cc3)cc2C(F)(F)F)=C1O (stereo not drawn) [Example 85, 2-(2-(4-(4-fluorophenoxy)-2-(trifluoromethyl)phenyl)cyclopropanecarbonyl)-3,5-dihydroxy-4,6,6-trimethylcyclohexa-2,4-dienone] | > 40 | 4 (≈ 8.16 µM) | 12 (≈ 24.5 µM) | – | – | –
20 | CCCC1=C(O)C(CCC)(CCC)C(=O)C(C(=O)C2CC2c2ccc(C(F)(F)F)cc2C(F)(F)F)=C1O (stereo not drawn) [Example 86, 2-(2-(2,4-bis(trifluoromethyl)phenyl)cyclopropanecarbonyl)-3,5-dihydroxy-4,6,6-tripropylcyclohexa-2,4-dienone] | 1.7 (≈ 3.19 µM) | 2.2 (≈ 4.13 µM) | 0.65 (≈ 1.22 µM) | – | – | –
21 | CCC1=C(O)C(CC)(CC)C(=O)C(C(=O)C2CC2c2ccc(C(F)(F)F)cc2C(F)(F)F)=C1O (stereo not drawn) [Example 87, 2-(2-(2,4-bis(trifluoromethyl)phenyl)cyclopropanecarbonyl)-4,6,6-triethyl-3,5-dihydroxycyclohexa-2,4-dienone] | > 40 | 3.2 (≈ 6.52 µM) | 5.9 (≈ 12 µM) | – | – | –
22 | CC1=C(O)C(C)(C)C(=O)C(C(=O)C2CC2c2ccc(C(F)(F)F)cc2)=C1O (stereo not drawn) [Example 88, 3,5-dihydroxy-4,6,6-trimethyl-2-(2-(4-(trifluoromethyl)phenyl)cyclopropanecarbonyl)cyclohexa-2,4-dienone] | > 40 | > 40 | > 40 | – | – | –
23 | CCC1=C(O)C(CC)(CC)C(=O)C(C(=O)C2CC2c2ccc(Cl)cc2)=C1O (stereo not drawn) [Example 89, 2-(2-(4-chlorophenyl)cyclopropanecarbonyl)-4,6,6-triethyl-3,5-dihydroxycyclohexa-2,4-dienone] | – | – | – | >40 | 7.9 (≈ 20.3 µM) | 3.0 (≈ 7.71 µM)
24 | CCC1=C(O)C(CC)(CC)C(=O)C(C(=O)C2CC2c2ccc(C(F)(F)F)cc2)=C1O (stereo not drawn) [Example 90, 4,6,6-triethyl-3,5-dihydroxy-2-(2-(4-(trifluoromethyl)phenyl)cyclopropanecarbonyl)cyclohexa-2,4-dienone] | 2.3 (≈ 5.44 µM) | 1.1 (≈ 2.6 µM) | 1.4 (≈ 3.31 µM) | – | – | –
25 | CCCC1=C(O)C(CCC)(CCC)C(=O)C(C(=O)C2CC2c2ccc(C(F)(F)F)cc2)=C1O (stereo not drawn) [Example 91, 3,5-dihydroxy-4,6,6-tripropyl-2-(2-(4-(trifluoromethyl)phenyl)cyclopropanecarbonyl)cyclohexa-2,4-dienone] | 0.41 (≈ 0.883 µM) | 0.66 (≈ 1.42 µM) | 0.36 (≈ 0.775 µM) | – | – | –
26 | CC1=C(O)C(C)(C)C(=O)C(C(=O)C2CC2c2ccc(Oc3ccc(F)cc3)cc2)=C1O (stereo not drawn) [Example 92, 2-(2-(4-(4-fluorophenoxy)phenyl)cyclopropanecarbonyl)-3,5-dihydroxy-4,6,6-trimethylcyclohexa-2,4-dienone] | > 40 | 5.5 (≈ 13 µM) | 21 (≈ 49.7 µM) | – | – | –

From US10450292B2, “Inhibitors of bacterial RNA polymerase: arylpropanoyl, arylpropenoyl, and arylcyclopropanecarboxyl phloroglucinols” (Rutgers, The State University of New Jersey, priority 2015, dated 2019)
